Measured values published in patent publication US20240124443A1, “PLASMIN INHIBITOR, PREPARATION METHOD THEREFOR, AND APPLICATION THEREOF” (SCINNOHUB PHARMACEUTICAL CO., LTD, priority 2021, published 2024).
Structures can show the parent of a compound that is named as a salt. Where two headings read alike, the source gives them in different places. One block for each molecule: values may come before it.

How the values were obtained:
[1] = tested on: degradation of plasma clots; experiment: Plasma clot lysis assay; format: biochemical, human
Experimental: To determine the inhibitory effect of the compounds of the invention on the degradation of plasma clots.
3.1 Collect fresh healthy human blood, mix 1 part of anticoagulant (0.109 M trisodium citrate) with 9 parts of blood, centrifuge at 2000×g for 20 min at room temperature, collect the supernatant (plasma), sub-package and store at −80° C. for later use.
3.2 On the day of experiment, the plasma was thawed in a water bath at 37° C., and all reagents except tPA were pre-warmed at 37° C.
3.3 Add 12.5 μL of 80 mM CaCl2 (HEPES buffer, pH 7.4) to a 96-well plate, and then add 25 μL of different concentrations of test compound diluted with normal saline, add an equal volume of normal saline to the negative control well.
3.4 Mix 50 μL of pre-warmed plasma with 12.5 μL of 4 nM tPA (HEPES buffer, pH 7.4), immediately add to a 96-well plate, measure the absorbance at 405 nm every 2 minutes, continuously for 15 hours.
The time corresponding to the median of the absorption value in the descending section—the time corresponding to the median of the absorption value in the ascending section is the plasma clot degradation time (Clot lysis time). Taking the plasma clot lysis time of the negative control well as a reference, calculate the relative value of the plasma clot lysis time in the wells treated with different concentrations of the compound and the plasma clot lysis time of the negative control well to obtain the inhibition rate:
Inhibition rate%=(1−Clot lysis time of negative control well/Clot lysis time of compound treated well)×100%
Taking the log value of the compound concentration as the X-axis, and the percentage inhibition rate as the Y-axis, and dose-response curves were fitted with the software GraphPad Prism 5 by using log (inhibitor) vs. Response-Variable slope to derive IC50 values of compounds inhibiting the degradation of plasma clots.
Formula: Y=min+(max−min)/(1+10^((LogIC50−X)×Hillslope).

[2] = Monkey PK experiment (plasma concentration by LC-MS/MS); format: in vivo; details: male cynomolgus monkey, 1 mg/kg intravenous injection, single dose, fasted
Experimental: Male Cynomolgus monkey, normal grade, 3 monkeys each group (N=3)
The compound is weighed and dissolved in normal saline to prepare a 0.5 mg/mL clear solution for intravenous administration.
On the day of the experiment, the animals were administered according to the scheme in the table below. At each time point after administration, approximately 1 mL of blood was collected from the forearm vein and placed in heparin sodium anticoagulation tubes. Blood samples were placed on ice after collection, and the plasma was separated by centrifugation within 1 hour (centrifugation conditions: 2200 g, 10 minutes, 2-8° C.). The plasma samples were stored in a refrigerator at −80° C. until analysis.
The compound concentration in cynomolgus monkey plasma was determined by the following method: • Instruments and equipment: LC-MS/MS-19 (TQ5500, AB SCIEX, USA). • Internal standard: warfarin. • Chromatographic column: ACQUITY UPLC BEH C18, model 1.7 um 2.1*50 mm, purchased from Shenzhen Novah Chemical Technology Co., Ltd.; • Flow rate: 0.60 ml/min. • Column temperature: 40° C. • Mobile phase A: 0.1% formic acid in water. • Mobile phase B: 0.1% formic acid in acetonitrile.
Take 30 μL of the plasma sample prepared from item “2” , add 300 μL MeOH containing 100 ng/mL of internal standard to precipitate protein. The mixture was vortexed for 1 minute and centrifuged at 18000 g for 7 minutes. The supernatant was transferred to a 96-well plate. Inject 4 μL of supernatant into LC-MS/MS for analysis.
Pharmacokinetic parameters were calculated by using Phoenix WinNonlin7.0 software according to blood concentration data of different time points.

[3] = tested on: fibrinolysis; details: cited from earlier work
[4] = human plasma, tPA, inhibition of plasma clot degradation in vitro relative to tranexamic acid

Structure (SMILES): Cl.O=C(O)c1ccc2c(n1)CC(CCC1CCCCC1)NC2 (stereo not shown) [Example 43]
IC50 ratio (IC50 Examples/IC50 Tranexamic acid) [1, 4]: 0.11

Structure (SMILES): Cl.O=C(O)c1ccc2c(n1)CC(COCCO)NC2 (stereo not shown) [Example 32]
IC50 ratio (IC50 Examples/IC50 Tranexamic acid) [1, 4]: 0.61

Structure (SMILES): CC(C)CC1Cc2nc(C(=O)O)ccc2CN1.Cl (stereo not shown) [Example 26]
IC50 ratio (IC50 Examples/IC50 Tranexamic acid) [1, 4]: 0.22

Structure (SMILES): O=C(O)c1ccc2c(n1)CC(CNCCO)NC2 (stereo not shown) [Example 31]
IC50 ratio (IC50 Examples/IC50 Tranexamic acid) [1, 4]: 1.87

Structure (SMILES): CC(C)C(O)C1Cc2nc(C(=O)O)ccc2CN1.Cl (stereo not shown) [Example 33]
IC50 ratio (IC50 Examples/IC50 Tranexamic acid) [1, 4]: 0.53

Structure (SMILES): Cl.O=C(O)c1ccc2c(n1)C(N1CCCCC1)CNC2 (stereo not shown) [Example 19]
IC50 ratio (IC50 Examples/IC50 Tranexamic acid) [1, 4]: 5.75

Structure (SMILES): Cl.O=C(O)c1ccc2c(n1)C(N1CCOCC1)CNC2 (stereo not shown) [Example 5, 8-morpholino-5,6,7,8-tetrahydro-1,6-naphthyridine-2-carboxylic acid hydrochloride]
IC50 ratio (IC50 Examples/IC50 Tranexamic acid) [1, 4]: 0.29

Structure (SMILES): O=C(O)c1ccc2c(n1)CC(CNCCCO)NC2 (stereo not shown) [Example 11, 7-(((3-hydroxypropyl)amino)methyl)-5,6,7,8-tetrahydro-1,6-naphthyridine-2-carboxylic acid dihydrochloride]
IC50 ratio (IC50 Examples/IC50 Tranexamic acid) [1, 4]: 2.58

Structure (SMILES): Cl.O=C(O)c1ccc2c(n1)CC1(CCOCC1)NC2 [Example 44]
IC50 ratio (IC50 Examples/IC50 Tranexamic acid) [1, 4]: 0.23

Structure (SMILES): CC(C)(O)C1Cc2nc(C(=O)O)ccc2CN1.Cl (stereo not shown) [Example 24]
IC50 ratio (IC50 Examples/IC50 Tranexamic acid) [1, 4]: 1.67

Structure (SMILES): CC(C)CC1(CC(C)C)Cc2nc(C(=O)O)ccc2CN1.Cl [Example 48]
IC50 ratio (IC50 Examples/IC50 Tranexamic acid) [1, 4]: 0.42

Structure (SMILES): Cl.O=C(O)c1ccc2c(n1)CCNC2 [Example 1, 5,6,7,8-tetrahydro-1,6-naphthyridine-2-carboxylic acid hydrochloride]
AUC [2]: 4110 ng·h/mL | Cmax [2]: 10600 ng/mL | clearance [2]: 4 mL/min/kg

Structure (SMILES): Cl.O=C(O)c1ccc2c(n1)CC(C(=O)OCCCO)NC2 (stereo not shown) [Example 30]
IC50 ratio (IC50 Examples/IC50 Tranexamic acid) [1, 4]: 0.32

Structure (SMILES): CCC1(CC)Cc2nc(C(=O)O)ccc2CN1.Cl [Example 45, 7,7-diethyl-5,6,7,8-tetrahydro-1,6-naphthyridine-2-carboxylic acid hydrochloride]
IC50 ratio (IC50 Examples/IC50 Tranexamic acid) [1, 4]: 0.57

Structure (SMILES): Cl.O=C(O)c1ccc2c(n1)CC1(CCC1)NC2 [Example 49]
IC50 ratio (IC50 Examples/IC50 Tranexamic acid) [1, 4]: 0.28

Structure (SMILES): CC(C)CCC1Cc2nc(C(=O)O)ccc2CN1.Cl (stereo not shown) [Example 38]
IC50 ratio (IC50 Examples/IC50 Tranexamic acid) [1, 4]: 0.13

Structure (SMILES): Cl.O=C(O)c1ccc2c(n1)CC(C(=O)NCCO)NC2 (stereo not shown) [Example 29]
IC50 ratio (IC50 Examples/IC50 Tranexamic acid) [1, 4]: 2.26

Structure (SMILES): Cl.O=C(O)c1ccc2c(n1)CC(C(O)c1ccccc1)NC2 (stereo not shown) [Example 12, 7-(hydroxy(phenyl)methyl)-5,6,7,8-tetrahydro-1,6-naphthyridine-2-carboxylic acid hydrochloride]
IC50 ratio (IC50 Examples/IC50 Tranexamic acid) [1, 4]: 0.88

Structure (SMILES): Cl.O=C(O)c1ccc2c(n1)CC(Cc1ccccc1)NC2 (stereo not shown) [Example 27]
IC50 ratio (IC50 Examples/IC50 Tranexamic acid) [1, 4]: 0.67

Structure (SMILES): Cl.O=C(O)c1ccc2c(n1)CC(CC1CCCCC1)NC2 (stereo not shown) [Example 41]
IC50 ratio (IC50 Examples/IC50 Tranexamic acid) [1, 4]: 0.12

Structure (SMILES): Cl.O=C(O)c1ccc2c(n1)CC(C(O)CCCO)NC2 (stereo not shown) [Example 13, 7-(1,4-dihydroxybutyl)-5,6,7,8-tetrahydro-1,6-naphthyridine-2-carboxylic acid hydrochloride]
IC50 ratio (IC50 Examples/IC50 Tranexamic acid) [1]: 1.63

Structure (SMILES): Cl.O=C(O)c1ccc2c(n1)CC(C1(O)CC1)NC2 (stereo not shown) [Example 9, 7-(1-hydroxycyclopropyl)-5,6,7,8-tetrahydro-1,6-naphthyridine-2-carboxylic acid hydrochloride]
IC50 ratio (IC50 Examples/IC50 Tranexamic acid) [1, 4]: 0.44

Structure (SMILES): Cl.O=C(O)c1ccc2c(n1)CC(CCCCO)NC2 (stereo not shown) [Example 10, 7-(4-hydroxybutyl)-5,6,7,8-tetrahydro-1,6-naphthyridine-2-carboxylic acid hydrochloride]
IC50 ratio (IC50 Examples/IC50 Tranexamic acid) [1, 4]: 0.18

Structure (SMILES): Cl.O=C(O)c1ccc2c(n1)C(N1CCS(=O)(=O)CC1)CNC2 (stereo not shown) [Example 6, 8-(1,1-dioxido-thiomorpholino)-5,6,7,8-tetrahydro-1,6-naphthyridine-2-carboxylic acid hydrochloride]
IC50 ratio (IC50 Examples/IC50 Tranexamic acid) [1, 4]: 0.31

Structure (SMILES): NC[C@H]1CC[C@H](C(=O)O)CC1 [tranexamic acid, trans-4-aminomethyl-cyclohexane-carboxylic acid]
anti-fibrinolytic activity relative to EACA [3]: about 10 times

Structure (SMILES): Cl.O=C(O)c1ccc2c(n1)CC(CO)(CO)NC2 [Example 25]
IC50 ratio (IC50 Examples/IC50 Tranexamic acid) [1, 4]: 6.36

Structure (SMILES): NC1CNCc2ccc(C(=O)O)nc21 (stereo not shown) [Example 3, 8-amino-5,6,7,8-tetrahydro-1,6-naphthyridine-2-carboxylic acid dihydrochloride]
IC50 ratio (IC50 Examples/IC50 Tranexamic acid) [1, 4]: 2.89

Structure (SMILES): Cl.O=C(O)c1nc2c(cc1F)CNCC2 [Example 17, 3-fluoro-5,6,7,8-tetrahydro-1,6-naphthyridine-2-carboxylic acid hydrochloride]
IC50 ratio (IC50 Examples/IC50 Tranexamic acid) [1, 4]: 0.34

Structure (SMILES): Cl.O=C(O)c1ccc2c(n1)C(N1CCOC(Cc3ccccc3)C1)CNC2 (stereo not shown) [Example 15, 8-(2-benzylmorpholino)-5,6,7,8-tetrahydro-1,6-naphthyridine-2-carboxylic acid hydrochloride]
IC50 ratio (IC50 Examples/IC50 Tranexamic acid) [1, 4]: 0.57

IC50 ratio (IC50 Examples/IC50 Tranexamic acid) [1, 4]: 0.17
Structure (SMILES): COc1ccc(CCC2Cc3nc(C(=O)O)ccc3CN2)cc1.Cl (stereo not shown) [Example 42]

Structure (SMILES): Cl.O=C(O)c1ccc2c(n1)CC(C(=O)O)NC2 (stereo not shown) [Example 16, 5,6,7,8-tetrahydro-1,6-naphthyridine-2,7-dicarboxylic acid hydrochloride]
IC50 ratio (IC50 Examples/IC50 Tranexamic acid) [1, 4]: 0.54

Structure (SMILES): Cl.O=C(O)c1ccc2c(n1)CC1(CCCCC1)NC2 [Example 47]
IC50 ratio (IC50 Examples/IC50 Tranexamic acid) [1, 4]: 0.40

Structure (SMILES): Cl.O=C(O)c1ccc2c(n1)CC(CO)NC2 (stereo not shown) [Example 23]
IC50 ratio (IC50 Examples/IC50 Tranexamic acid) [1, 4]: 0.17

Structure (SMILES): Cl.O=C(O)c1ccc2c(n1)CC(CCc1ccccc1)NC2 (stereo not shown) [Example 35]
IC50 ratio (IC50 Examples/IC50 Tranexamic acid) [1, 4]: 0.12

Structure (SMILES): Cl.O=C(O)c1ccc2c(n1)CC(COCCCO)NC2 (stereo not shown) [Example 7, 7-((3-hydroxypropoxy)methyl)-5,6,7,8-tetrahydro-1,6-naphthyridine-2-carboxylic acid hydrochloride]
IC50 ratio (IC50 Examples/IC50 Tranexamic acid) [1, 4]: 0.25

Structure (SMILES): CC(C)C1Cc2nc(C(=O)O)ccc2CN1.Cl (stereo not shown) [Example 37]
IC50 ratio (IC50 Examples/IC50 Tranexamic acid) [1, 4]: 0.18

Structure (SMILES): Cl.O=C(O)c1ccc2c(n1)C(N1CCSCC1)CNC2 (stereo not shown) [Example 20]
IC50 ratio (IC50 Examples/IC50 Tranexamic acid) [1, 4]: 0.50

Structure (SMILES): CC(C)(C)CCC1Cc2nc(C(=O)O)ccc2CN1.Cl (stereo not shown) [Example 40]
IC50 ratio (IC50 Examples/IC50 Tranexamic acid) [1, 4]: 0.18

Structure (SMILES): Cl.O=C(O)c1ccc2c(n1)C(N1CC[S+]([O-])CC1)CNC2 (stereo not shown) [Example 21]
IC50 ratio (IC50 Examples/IC50 Tranexamic acid) [1, 4]: 0.14

Structure (SMILES): Cl.O=C(O)c1ccc2c(n1)CC(CCCc1ccccc1)NC2 (stereo not shown) [Example 34]
IC50 ratio (IC50 Examples/IC50 Tranexamic acid) [1, 4]: 0.11

Structure (SMILES): Cl.O=C(O)c1ccc2c(n1)C(OCCO)CNC2 (stereo not shown) [Example 18]
IC50 ratio (IC50 Examples/IC50 Tranexamic acid) [1, 4]: 0.66

Structure (SMILES): CC(C)(C)CC1Cc2nc(C(=O)O)ccc2CN1.Cl (stereo not shown) [Example 36]
IC50 ratio (IC50 Examples/IC50 Tranexamic acid) [1, 4]: 0.13

Structure (SMILES): Cl.O=C(O)c1ccc2c(n1)CC1(CCCC1)NC2 [Example 46]
IC50 ratio (IC50 Examples/IC50 Tranexamic acid) [1, 4]: 0.33

Structure (SMILES): Cl.O=C(O)c1ccc2c(n1)C(N1CCNCC1)CNC2 (stereo not shown) [Example 22]
IC50 ratio (IC50 Examples/IC50 Tranexamic acid) [1, 4]: 0.67

Structure (SMILES): CCCC1Cc2nc(C(=O)O)ccc2CN1.Cl (stereo not shown) [Example 39]
IC50 ratio (IC50 Examples/IC50 Tranexamic acid) [1, 4]: 0.17

Structure (SMILES): Cl.O=C(O)c1ccc2c(n1)CC(CCCCCO)NC2 (stereo not shown) [Example 28]
IC50 ratio (IC50 Examples/IC50 Tranexamic acid) [1, 4]: 0.27

Structure (SMILES): Cl.O=C(O)c1ccc2c(n1)C(O)CNC2 (stereo not shown) [Example 2, 8-hydroxy-5,6,7,8-tetrahydro-1,6-naphthyridine-2-carboxylic acid hydrochloride]
IC50 ratio (IC50 Examples/IC50 Tranexamic acid) [1, 4]: 1.24
